{"source": "patent US4230854A", "about": "“Analogues of ergot alkaloids” (Societa Farmaceutici Italia S.p.A., priority 1977, dated 1980)", "key": {"[1]": {"assay": "acute toxicity (LD50) in mice", "conditions": "mouse, in vivo, iv, standard procedure", "method": "(c) LD50 was determined in mice according to the standard procedure."}, "[2]": {"system": "lethal effect of 0.2 mg/Kg epinephrine", "assay": "adrenergic blockade in vivo: receptor blockade in rats, protection from the lethal effect of epinephrine", "conditions": "Rattus norvegicus, iv, 5 min, dose protecting 50% of animals from the lethal effect of 0.2 mg/Kg epinephrine injected i.v. 5 min later, estimated graphically", "method": "(b) receptor blockade was determined in rats according to Luduena F.P. et\nal. (Arch. Int. Pharmacodyn CXXII, 111, 1959). ED50 is the\ngraphically estimated dose of antagonist protecting 50% of animals from\nthe lethal effect of 0.2 mg/Kg epinephrine, injected i.v. 5 min later."}, "[3]": {"system": "spasmogenic effect of epinephrine on the isolated guineapig seminal vescicle", "assay": "adrenergic blockade in vitro: receptor blockade against the spasmogenic effect of epinephrine on the isolated guineapig seminal vescicle", "type": "biochemical", "conditions": "concentration producing 50% inhibition of the effect of epinephrine, estimated graphically", "method": "(a) receptors blockade was determined against the spasmogenic effect of\nepinephrine on the isolated guineapig seminal vescicle according to\nBrugger J. (Helv.Physiol. Acta 3, 117, 1945). Concentration producing 50%\ninhibition of the effect of the agonist were estimated graphically for […]"}}}
{"smiles": "CC(C)[C@@]1(NC(=O)[C@@H]2C[C@@H]3c4cccc5[nH]cc(c45)C[C@H]3N(C)C2)O[C@@]2(O)[C@@H]3CCCN3C(=O)[C@H](Cc3ccccc3)N2C1=O", "note": "[Dihydroergocristine, reference compound]", "values": [{"measurement": "LD50", "setting": "[1]", "result": 174, "unit": "mg/kg"}, {"measurement": "ED50", "setting": "[2]", "result": 0.03, "unit": "mg/kg"}]}
{"smiles": "CN1C[C@H](C(=O)N[C@]2(C)O[C@@]3(O)[C@@H]4CCCN4C(=O)[C@H](Cc4ccc(Cl)cc4)N3C2=O)C=C2c3cccc4[nH]cc(c34)C[C@H]21", "note": "[5'-debenzyl-5'-p-chlorobenzyl ergotamine]", "values": [{"measurement": "adrenergic blockade In vitro IC50", "setting": "[3]", "result": 0.03, "unit": "µg/mL"}, {"measurement": "LD50", "setting": "[1]", "result": 100, "unit": "mg/kg"}, {"measurement": "ED50", "setting": "[2]", "result": 0.1, "unit": "mg/kg"}]}
{"smiles": "CN1C[C@H](C(=O)N[C@]2(C)O[C@@]3(O)[C@@H]4CCCN4C(=O)[C@H](Cc4ccccc4)N3C2=O)C=C2c3cccc4[nH]cc(c34)C[C@H]21", "note": "[Ergotamine, reference compound]", "values": [{"measurement": "adrenergic blockade In vitro IC50", "setting": "[3]", "result": 0.07, "unit": "µg/mL"}, {"measurement": "LD50", "setting": "[1]", "result": 70, "unit": "mg/kg"}, {"measurement": "ED50", "setting": "[2]", "result": 0.2, "unit": "mg/kg"}]}
{"smiles": "CN1C[C@H](C(=O)N[C@]2(C)O[C@@]3(O)[C@@H]4CCCN4C(=O)[C@H](Cc4ccc(Cl)cc4)N3C2=O)C[C@@H]2c3cccc4[nH]cc(c34)C[C@H]21", "note": "[5'-debenzyl-5'-p-chlorobenzyl dihydroergotamine]", "values": [{"measurement": "adrenergic blockade In vitro IC50", "setting": "[3]", "result": 0.02, "unit": "µg/mL"}, {"measurement": "LD50", "setting": "[1]", "result": 150, "unit": "mg/kg"}, {"measurement": "ED50", "setting": "[2]", "result": 0.05, "unit": "mg/kg"}]}
{"smiles": "CC(C)[C@@]1(NC(=O)[C@@H]2C[C@@H]3c4cccc5[nH]cc(c45)C[C@H]3N(C)C2)O[C@@]2(O)[C@@H]3CCCN3C(=O)[C@H](Cc3ccc(Cl)cc3)N2C1=O", "note": "[5'-debenzyl-5'-p-chlorobenzyl dihydroergocristine]", "values": [{"measurement": "adrenergic blockade In vitro IC50", "setting": "[3]", "result": 0.03, "unit": "µg/mL"}, {"measurement": "LD50", "setting": "[1]", "result": 190, "unit": "mg/kg"}, {"measurement": "ED50", "setting": "[2]", "result": 0.02, "unit": "mg/kg"}]}
{"smiles": "CN1C[C@H](C(=O)N[C@]2(C)O[C@@]3(O)[C@@H]4CCCN4C(=O)[C@H](Cc4ccccc4)N3C2=O)C[C@@H]2c3cccc4[nH]cc(c34)C[C@H]21", "note": "[Dihydroergotamine, reference compound]", "values": [{"measurement": "adrenergic blockade In vitro IC50", "setting": "[3]", "result": 0.02, "unit": "µg/mL"}, {"measurement": "LD50", "setting": "[1]", "result": 118, "unit": "mg/kg"}, {"measurement": "ED50", "setting": "[2]", "result": 0.08, "unit": "mg/kg"}]}
